Results from patent US5910509A, “Antimicrobial agent for agriculture” (priority 1996, dated 1999).
Read-outs that look alike come from different tables or passages of the source.

Experiments:
[1] = test system: Fungal cells; experiment: Disk diffusion assay for antimicrobial activity; format: cell-based; details: 37° C., 24 hours; for zone appearance (clear = fungicidal, hazy = fungistatic): disk diffusion; for zone of growth inhibition diameter: positive control disks 2.5 and 10 μg; for zone of inhibition at 100 µg/disc: 100 μg per 6 mm disk, Sabouraud Dextrose Agar, read-out: zone of growth inhibition diameter
Experimental: (§1) Fungal cells were grown overnight from a single colony in 2-5 ml Sabouraud Dextrose Broth at 37° C. 1-5×10^6 were spread onto Sabouraud Dextrose Agar plates (Difco, Detroit, Mich.). Sterile 6 mm filter disks were evenly spaced with at least about 22 mm separation on the plates. To each disk, 100 μg of a compound to be tested was applied in 5-10 μl DMSO. On each plate, two disks containing 2.5 and 10 μg, respectively, of Amphotericin B (Sigma) and two disks containing 2.5 and 10 μg, respectively, of cerulenin (Sigma) were used as positive controls. A disk containing only DMSO served as the negative control. The plates were incubated at 37° C. for 24 hours and the zone of growth inhibition about each disk was visually examined and measured. Compound A and compound B typically produced clear zones of 8-12 mm diameter. Amphotericin B typically produced a clear zone of 8-10 mm diameter. Cerulenin typically produced a hazy zone of 20-25 mm diameter. A clear zone is indicative of fungicidal activity, while a hazy zone is indicative of fungistatic activity.

[2] = test system: C. albicans strain ATCC 10231; experiment: Murine systemic model of candidiasis; format: in vivo, mice; details: for Deaths Each Day Post Inoculation: 10 mg/kg IP
Experimental: In vivo activity was determined using a murine systemic model of candidiasis. Groups of 5 to 10 mice were inoculated IV with 1-2×10^7 cells of C. albicans strain ATCC 10231 (10 times the lethal dose). One hour after inoculation, the candidate antifungal compounds were delivered IP. 10 mg/kg of compound A was injected into each mouse of the compound A treatment group. Two separate treatment groups received 30 and 100 mg/kg, respectively, of compound B. Amphotericin B was injected into a positive control treatment group at 10 mg/kg. All compounds were delivered in phosphate-buffered saline (PBS) and one treatment group received PBS. Twice daily thereafter the mice were observed, the number of dead mice recorded, and the dead mice removed. After nine days, the total mortality over the period was determined.
Using the same methodology, it was determined that the maximal tolerated dose in these mice (i.e., the maximum dose that caused no deaths within 72 hours following IP administration) of compound B was in excess of 200 mg/kg. The mice treated with 2108B or Amphotericin B injected IP in […] of phosphate buffered saline, pH 7.4 had the following treatment profiles: […]

[3] = biological target: T1, FAS (Candida albicans, UniProt P43098); experiment: FAS activity in extracts of treated C. albicans cultures (Example 10); format: cell-based
T1 construct: endogenous in cells; host or cells: Candida albicans strain 4918
T1 sequence (P43098 whole entry): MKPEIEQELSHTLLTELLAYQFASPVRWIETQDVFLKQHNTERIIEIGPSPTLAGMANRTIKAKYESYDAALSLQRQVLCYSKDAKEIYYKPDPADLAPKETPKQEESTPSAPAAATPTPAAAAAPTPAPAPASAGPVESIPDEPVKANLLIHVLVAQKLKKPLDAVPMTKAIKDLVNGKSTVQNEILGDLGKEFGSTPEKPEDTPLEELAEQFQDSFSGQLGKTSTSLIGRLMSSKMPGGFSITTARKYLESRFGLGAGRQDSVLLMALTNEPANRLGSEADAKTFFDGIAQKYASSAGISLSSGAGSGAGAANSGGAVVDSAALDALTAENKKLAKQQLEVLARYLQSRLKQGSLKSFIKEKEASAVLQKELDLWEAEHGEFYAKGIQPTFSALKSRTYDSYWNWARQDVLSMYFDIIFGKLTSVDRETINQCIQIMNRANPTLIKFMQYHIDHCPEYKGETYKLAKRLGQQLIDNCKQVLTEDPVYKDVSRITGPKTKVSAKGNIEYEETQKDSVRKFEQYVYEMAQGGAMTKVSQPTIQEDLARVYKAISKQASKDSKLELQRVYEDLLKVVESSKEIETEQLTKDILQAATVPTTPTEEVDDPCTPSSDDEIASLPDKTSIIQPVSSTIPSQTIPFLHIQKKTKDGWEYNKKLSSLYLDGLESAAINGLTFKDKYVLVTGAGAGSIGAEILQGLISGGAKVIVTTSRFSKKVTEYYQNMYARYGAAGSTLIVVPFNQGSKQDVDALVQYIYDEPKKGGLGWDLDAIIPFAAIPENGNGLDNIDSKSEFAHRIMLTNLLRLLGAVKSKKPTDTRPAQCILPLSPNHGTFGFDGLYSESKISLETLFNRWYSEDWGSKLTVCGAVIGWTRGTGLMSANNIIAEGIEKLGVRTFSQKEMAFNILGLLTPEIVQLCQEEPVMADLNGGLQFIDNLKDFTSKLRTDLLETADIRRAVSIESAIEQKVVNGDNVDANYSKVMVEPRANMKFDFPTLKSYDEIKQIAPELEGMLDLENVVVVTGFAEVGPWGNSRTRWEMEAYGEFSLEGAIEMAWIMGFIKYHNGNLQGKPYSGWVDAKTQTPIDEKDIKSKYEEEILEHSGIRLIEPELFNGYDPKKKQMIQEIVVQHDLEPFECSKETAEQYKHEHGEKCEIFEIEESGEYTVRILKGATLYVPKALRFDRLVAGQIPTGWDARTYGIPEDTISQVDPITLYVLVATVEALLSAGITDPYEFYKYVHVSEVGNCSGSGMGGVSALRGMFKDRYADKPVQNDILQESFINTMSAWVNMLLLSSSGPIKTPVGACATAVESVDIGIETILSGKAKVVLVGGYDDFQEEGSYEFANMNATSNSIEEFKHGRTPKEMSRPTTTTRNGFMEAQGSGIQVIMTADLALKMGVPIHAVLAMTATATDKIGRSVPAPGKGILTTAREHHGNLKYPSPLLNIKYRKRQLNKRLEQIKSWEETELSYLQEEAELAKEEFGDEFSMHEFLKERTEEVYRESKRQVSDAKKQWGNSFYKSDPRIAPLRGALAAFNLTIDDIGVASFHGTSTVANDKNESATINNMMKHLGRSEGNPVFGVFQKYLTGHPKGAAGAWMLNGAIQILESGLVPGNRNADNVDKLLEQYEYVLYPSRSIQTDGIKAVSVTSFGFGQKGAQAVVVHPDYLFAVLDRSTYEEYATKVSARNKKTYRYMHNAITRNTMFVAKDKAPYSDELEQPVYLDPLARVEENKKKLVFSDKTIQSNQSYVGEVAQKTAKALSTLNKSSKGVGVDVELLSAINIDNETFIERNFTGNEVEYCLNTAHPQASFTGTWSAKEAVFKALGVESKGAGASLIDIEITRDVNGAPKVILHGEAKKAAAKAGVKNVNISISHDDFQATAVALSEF
T1 sequence (P34731 whole entry partner): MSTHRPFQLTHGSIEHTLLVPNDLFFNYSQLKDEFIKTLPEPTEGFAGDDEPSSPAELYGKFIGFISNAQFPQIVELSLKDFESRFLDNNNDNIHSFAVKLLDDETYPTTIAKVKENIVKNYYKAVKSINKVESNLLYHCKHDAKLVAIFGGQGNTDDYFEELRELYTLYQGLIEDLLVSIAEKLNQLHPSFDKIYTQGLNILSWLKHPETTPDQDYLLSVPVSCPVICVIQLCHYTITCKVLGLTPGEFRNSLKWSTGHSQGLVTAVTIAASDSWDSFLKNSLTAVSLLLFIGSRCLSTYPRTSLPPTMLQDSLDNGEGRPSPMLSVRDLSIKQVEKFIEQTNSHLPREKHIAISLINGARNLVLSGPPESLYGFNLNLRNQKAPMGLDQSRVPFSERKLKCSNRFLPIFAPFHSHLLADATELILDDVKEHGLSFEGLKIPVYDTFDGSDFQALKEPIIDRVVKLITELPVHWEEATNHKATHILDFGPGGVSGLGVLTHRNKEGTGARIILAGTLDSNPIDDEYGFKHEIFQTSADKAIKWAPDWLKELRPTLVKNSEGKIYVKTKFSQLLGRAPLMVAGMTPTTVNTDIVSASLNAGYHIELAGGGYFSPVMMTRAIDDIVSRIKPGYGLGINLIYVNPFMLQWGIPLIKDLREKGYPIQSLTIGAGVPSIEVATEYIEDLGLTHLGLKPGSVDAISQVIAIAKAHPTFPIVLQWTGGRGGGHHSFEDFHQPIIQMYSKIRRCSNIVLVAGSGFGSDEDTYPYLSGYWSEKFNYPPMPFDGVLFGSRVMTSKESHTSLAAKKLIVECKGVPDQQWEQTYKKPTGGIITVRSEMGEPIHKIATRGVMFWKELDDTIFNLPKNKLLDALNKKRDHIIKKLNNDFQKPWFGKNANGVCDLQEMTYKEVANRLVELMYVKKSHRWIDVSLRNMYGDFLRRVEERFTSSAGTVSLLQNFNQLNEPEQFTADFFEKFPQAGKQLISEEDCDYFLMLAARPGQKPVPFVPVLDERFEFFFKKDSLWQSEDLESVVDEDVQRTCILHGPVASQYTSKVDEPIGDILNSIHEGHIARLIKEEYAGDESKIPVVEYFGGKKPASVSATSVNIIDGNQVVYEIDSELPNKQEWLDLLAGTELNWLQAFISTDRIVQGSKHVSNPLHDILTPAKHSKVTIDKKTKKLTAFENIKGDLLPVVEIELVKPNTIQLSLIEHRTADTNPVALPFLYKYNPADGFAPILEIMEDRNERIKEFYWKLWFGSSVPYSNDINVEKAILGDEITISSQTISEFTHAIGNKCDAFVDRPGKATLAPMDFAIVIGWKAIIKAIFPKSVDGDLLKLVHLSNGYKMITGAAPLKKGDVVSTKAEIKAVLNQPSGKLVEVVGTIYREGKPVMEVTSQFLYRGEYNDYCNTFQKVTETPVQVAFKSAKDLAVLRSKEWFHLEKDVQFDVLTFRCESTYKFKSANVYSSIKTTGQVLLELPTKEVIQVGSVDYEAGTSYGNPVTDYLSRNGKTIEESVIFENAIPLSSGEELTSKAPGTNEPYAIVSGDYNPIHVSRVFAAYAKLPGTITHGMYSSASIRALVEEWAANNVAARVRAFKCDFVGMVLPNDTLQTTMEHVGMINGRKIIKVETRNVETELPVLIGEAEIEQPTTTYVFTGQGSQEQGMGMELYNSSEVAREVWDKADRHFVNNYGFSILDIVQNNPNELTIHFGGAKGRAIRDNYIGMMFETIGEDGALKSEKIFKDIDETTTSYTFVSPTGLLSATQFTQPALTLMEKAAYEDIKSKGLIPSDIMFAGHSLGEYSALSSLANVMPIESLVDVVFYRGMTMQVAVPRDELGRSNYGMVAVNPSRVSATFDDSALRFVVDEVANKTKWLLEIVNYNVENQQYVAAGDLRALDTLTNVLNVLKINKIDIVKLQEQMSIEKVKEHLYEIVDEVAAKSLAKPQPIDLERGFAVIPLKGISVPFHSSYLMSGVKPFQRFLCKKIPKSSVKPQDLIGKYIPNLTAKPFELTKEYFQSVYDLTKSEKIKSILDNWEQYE
Experimental: C. Albicans strain 4918 (available from Dr. Ronald Cihlar, Georgetown University Medical Center, Washington, D.C.) was grown in minimal medium (M63 media available from Difco, Detroit, Mich.) at 37° C. to mid-log phase. 10 μg/ml cerulenin and 25 μg/ml of compound B were added to separate cultures. At 15 minute intervals, 20 ml samples were removed and extracts prepared by mechanical extraction as in Example 1C, except that the ammonium sulfate precipitation step was not applied. The extract was diluted to 1 ml to form a solution containing 0.4M potassium phosphate, pH 7.3, 0.125 μM dithiothreitol, 50 μM acetyl-CoA, 100 μM NADPH. After incubation at 37° C. for 5 minutes, 100 μM malonyl-CoA containing 0.5 μCi [2-^14 C]-malonyl-CoA (Amersham, Arlington Heights, Ill.). After 10 minutes at 37° C., the fatty acid synthesis reaction was terminated by adding 30 μl of 60% perchloric acid (v/v) and 1 ml ethanol. Four volumes of pet. ether were added to each reaction incubation to extract the fatty acids. The relative incorporation of malonyl-CoA into fatty acids was determined by liquid scintillation counting.

[4] = test system: Candida Albicans strain B311A; experiment: MIC assay (Example 1B); format: cell-based; details: purification fractions, result in words
Experimental: The fractions from the purification were tested for antifungal activity against C. albicans (strain B311A available from Dr. Paul Actor, Temple University and strains ATCC Nos. 10231 and 10261) and C. tropicalis (strain 13803). Fungi were grown in 1× yeast nitrogen broth ("YNB") medium (BBL, Cockeysville, Md.) containing 15 μg/ml aspargine and 100 μg/ml kanamycin. Prior to the assay for antifungal activity, the fungus to be tested for susceptibility was grown overnight from a single colony in 5 ml of medium at 30° C. This overnight culture was diluted 1:10 with fresh medium and grown at 37° C. for 4 hours. A volume of 5 μl of extracts, dissolved in DMSO, was added to each separate well in a series of 96-well plates. 4,000 fungal cells were then added to each plate in 95 μl of medium. The optical densities of the wells were measured and the plates incubated at 37° C. The optical densities were again measured after 24 and 48 hours. Minimum inhibitory concentrations ("MICs") for the extracts were determined using this procedure wherein the extracts were serially diluted in medium prior to mixing with the 4,000 fungal cells.
Using the procedure described in the previous paragraph, it was determined that the MICs for compound A and compound B against Candida Albicans strain B311A grown in YNB medium were 25 μg/ml and 6.25 μg/ml, respectively. […]

[5] = biological target: T2, FAS from S. cereviseae (Saccharomyces cerevisiae, UniProt P07149+P19097); experiment: FAS inhibition assay (Example 1C); format: biochemical, Saccharomyces cerviseae; details: result in words
T2 construct: an FAS extract from Saccharomyces cerviseae was prepared; (the yeast cells); host or cells: Fleishmans' freeze dried yeast (Saccharomyces cerevisiae); lysate, 50% ammonium sulfate precipitate, dialyzed
Experimental: To test the compounds for FAS inhibitory activity, an FAS extract from Saccharomyces cerviseae was prepared. Freeze dried yeast (Fleishmans' freeze dried yeast, Specialty Brands, San Francisco, Calif.) 1 g, was hydrated in 5 mls deionized water for 15 minutes at 4° C. Subsequent extraction steps were conducted at a temperature between 4° C. and 10° C., except that in the cell lysis step the temperature may have briefly exceeded these boundaries. The cells were pelleted by centrifugation; the pelleted volume was measured; and the cells were resuspended in 5 vol. (5 mls per ml cell volume) extraction buffer [125 mM KH2PO4, pH 6.6, 1 mM EDTA, 1 mM DTT, 0.7 μg/ml pepstatin (Boehringer Mannheim, Indianapolis, Ind.), 0.2 μg/ml aprotinin (Boehringer Mannheim, Indianapolis, Ind.), 0.2 μg/ml leupeptin (Boehringer Mannheim, Indianapolis, Ind.)]. The cells were again pelleted and resuspended in 2 vol. extraction buffer. […]
105 μl of FAS extract was placed in each well of a polypropylene 96 well plate (Costar Corp. Cambridge, Mass.) and multiple 5 μl dilutions of compound A, compound B or negative control solution were introduced into each of the wells. […] The relative initial reaction rates in each well were measured by measuring the decrease in optical density at 340 nm using a UV Max microtiter plate reader (Molecular Devices, Sunnyvalle, Calif.).

[6] = test system: Candida albicans (strains ATCC 10231 and ATCC 10261); experiment: Disk diffusion assay, Candida albicans; format: cell-based
Experimental: as §1

[7] = test system: Candida tropicalis (strain ATCC 13803); experiment: Disk diffusion assay, Candida tropicalis; format: cell-based
Experimental: as §1

[8] = test system: Fusarium acuminatum (strains ATCC 32965 and ATCC 32966); experiment: Disk diffusion assay, Fusarium acuminatum; format: cell-based
Experimental: as §1

[9] = 0.5 h, read-out: Percent Remaining FAS Activity

Compound	zone appearance (clear = fungicidal, hazy = fungistatic) [1]	zone of growth inhibition diameter [1]	activity in the MIC assay of Example 1B [4]	activity in the enzyme inhibition assay of Example 1C [5]	zone of inhibition at 100 µg/disc [1] [mm]	antimicrobial activity [6]	antimicrobial activity [7]	antimicrobial activity [8]	other results
C[C@@H]1[C@H](O)[C@@H](C)/C=C/C=C/C=C/C=C/C=C/C=C/C=C/[C@H](O[C@@H]2O[C@H](C)[C@@H](O)[C@H](N)[C@@H]2O)C[C@@H]2O[C@](O)(C[C@@H](O)C[C@@H](O)[C@H](O)CC[C@@H](O)C[C@@H](O)CC(=O)O[C@H]1C)C[C@H](O)[C@H]2C(=O)O [Amphotericin B]	clear zone	8-10 mm							% Survival ([2]; 10 mg/kg IP one hour after inoculation, nine days): 80%; Deaths Each Day Post Inoculation ([2]; day 0): 0; Deaths Each Day Post Inoculation ([2]; day 1): 0; Deaths Each Day Post Inoculation ([2]; day 3): 0; Deaths Each Day Post Inoculation ([2]; day 5): 0; Deaths Each Day Post Inoculation ([2]; day 6): 0; Deaths Each Day Post Inoculation ([2]; day 7): 0; Deaths Each Day Post Inoculation ([2]; day 8): 0; Deaths Each Day Post Inoculation ([2]; day 9): 0
C/C=C/C/C=C/CCC(=O)[C@H]1O[C@H]1C(N)=O [Cerulenin, cerulenin]	hazy zone	20-25 mm							remaining activity at 10 µg/mL ([3]; 0.25 h, read-out: Percent Remaining FAS Activity): 20%; remaining activity at 10 µg/mL [3, 9]: 12%
C/C=C/C=C/C=C/C1=CC2=CC(=O)C(C)(OC(=O)CC(C)O)C(=O)C23OC3O1 (centres unmarked) [Compound A]	clear zones		retained activity	retained activity	8 to 12	had antimicrobial activity	had antimicrobial activity	had antimicrobial activity	
C/C=C/C=C/C=C/C1=CC2=CC(=O)C(C)(OC(=O)CC(C)O)C(=O)C2=CO1 (centres unmarked) [Compound B]	clear zones		retained activity	not directly inhibitory of FAS	8 to 12	had antimicrobial activity	had antimicrobial activity	had antimicrobial activity	FAS activity of cell extracts made after exposure [3]: markedly reduced FAS activity; remaining activity at 25 µg/mL [3, 9]: 40%
C/C=C/C=C/C=C/C1=CC2=CC(=O)C(C)(OC(=O)CC(O)CC(C)O)C(=O)C23OC3O1 (centres unmarked) [patulodin]					7				
